Experimental data from US20060058320A1, “[1,2,4] Triazolo[1,5-c]pyrimidine derivatives” (KYOWA HAKKO KOGYO CO., LTD., priority 2002, published 2006).
Where two headings read alike, the source gives them in different places.

How the values were obtained:
adenosine A2A receptor = molecular target: T1, adenosine A2A receptor (Rattus norvegicus, UniProt P30543); test: Adenosine A2A receptor binding test (3H-CGS 21680 binding); conditions: read-out: A2A Receptor inhibition rate (%) at 10^−7 mol/L
T1 construct: from tissue; host or cells: rat corpus striatum membrane preparation
T1 sequence (P30543 whole entry): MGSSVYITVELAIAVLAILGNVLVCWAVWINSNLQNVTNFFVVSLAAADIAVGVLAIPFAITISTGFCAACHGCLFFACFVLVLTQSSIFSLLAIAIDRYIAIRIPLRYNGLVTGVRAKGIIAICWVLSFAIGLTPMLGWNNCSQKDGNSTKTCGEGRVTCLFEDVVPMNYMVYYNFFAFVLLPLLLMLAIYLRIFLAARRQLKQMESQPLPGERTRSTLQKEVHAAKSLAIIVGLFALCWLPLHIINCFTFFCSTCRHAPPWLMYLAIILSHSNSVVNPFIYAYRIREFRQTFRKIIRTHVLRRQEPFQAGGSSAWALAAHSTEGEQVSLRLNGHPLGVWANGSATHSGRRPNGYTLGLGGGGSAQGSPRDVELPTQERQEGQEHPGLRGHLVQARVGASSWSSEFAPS
Protocol: The test was carried out according to the method of Bruns et al. [Molecular Pharmacology, vol. 29, p.
Rat corpus striatum was suspended in an ice-cold 50 mmol/L tris(hydroxymethyl)aminomethane hydrochloride (referred to as “Tris HCl” hereinafter) buffer (pH 7.7) using a Polytron homogenizer (produced by Kinematica Co.). The suspension was centrifuged (50,000×g, 10 minutes), and the resulting precipitate was again suspended in the same amount of a 50 mmol/L Tris HCl buffer, followed by centrifugation under the same conditions. The resulting finalprecipitate was again suspended in a 50 mmol/L-Tris HCl buffer [containing 10 mmol/L of magnesium chloride and 0.02 unit/mg tissue of adenosine deaminase (produced by Sigma Co.)] so that the tissue concentration was 5 mg (wet weight)/mL.
The radioactivity on the filter was determined with a liquid scintillation counter (produced by Packard Instrument Co.).
In the equation, X represents Amount of binding in the presence of a medicament, Y represents Amount of nonspecific binding, and Z represents Amount of total binding.

[1] = test compound 10^−7 mol/L, 3H-CGS 21680 binding, rat corpus striatum

melting point | inhibition at 0.1 µM (adenosine A2A receptor; [1]) | inhibition at 0.1 µM (adenosine A2A receptor) | Compound
218.5 to 219 °C | 65% |  | Nc1nc(-c2ccccc2)cc2nc(-c3ccco3)nn12 [Compound 1, 5-Amino-2-(2-furyl)-7-phenyl[1,2,4]triazolo[1,5-c]pyrimidine]
159.8 to 160.5 °C | 53% |  | Nc1nc(-c2ccc(CNCCc3ccccn3)cc2)cc2nc(-c3ccco3)nn12 [Compound 11, 5-Amino-2-(2-furyl)-7-{4-[2-(2-pyridyl)ethylaminomethyl]-phenyl}[1,2,4]triazolo[1,5-c]pyrimidine]
221.2 to 221.5 °C | 84% |  | CC(=O)c1cc2nc(-c3ccco3)nn2c(N)n1 [Compound 38, 7-Acetyl-5-amino-2-(2-furyl)[1,2,4]triazolo[1,5-c]pyrimidine]
229.2 to 229.7 °C | 66% |  | Nc1nc(C(=O)c2ccccc2)cc2nc(-c3ccco3)nn12 [Compound 39, 5-Amino-7-benzoyl 2-(2-furyl)[1,2,4]triazolo[1,5-c]-pyrimidine]
270 °C (dec.) | 54% |  | Nc1nc(C=O)cc2nc(-c3ccco3)nn12 [Compound 41, 5-Amino-7-formyl-2-(2-furyl)[1,2,4]triazolo[1,5-c]pyrimidine]
232.2 to 232.3 °C |  | 68% | Nc1nc(-c2cccs2)cc2nc(-c3ccco3)nn12 [Compound 51, 5-Amino-2-(2-furyl)-7-(2-thienyl)[1,2,4]triazolo[1,5-c]-pyrimidine]
155 to 155.3 °C | 81% |  | CCCCc1cc2nc(-c3ccco3)nn2c(N)n1 [Compound 64, 5-Amino-7-butyl-2-(2-furyl)[1,2,4]triazolo[1,5-c]pyrimidine]
205 to 205.1 °C | 82% |  | Nc1nc(CCc2ccccc2)cc2nc(-c3ccco3)nn12 [Compound 66, 5-Amino-2-(2-furyl)-7-(2-phenylethyl)[1,2,4]triazolo[1,5-c]-pyrimidine]
207.2 to 207.8 °C | 91% |  | Nc1nc(CCO)cc2nc(-c3ccco3)nn12 [Compound 67, 5-Amino-2-(2-furyl)-7-(2-hydroxyethyl)[1,2,4]triazolo[1,5-c]pyrimidine]
